Measurements published in patent publication US12473298B2, “Amide compounds, preparation method therefor, and use thereof in the medical field” (Shanghai Synergy Pharmaceutical Sciences Co., Ltd., priority 2019, dated 2025).
Like-named read-outs stand apart in the source and are kept apart here.

Experiments:
wild-type EZH2 = wild-type EZH2 (Homo sapiens (Human), UniProt Q15910); assay: radiometric assay, activity to wild-type EZH2 of PRC2; conditions: read-out: Wild-type EZH2 IC50 Nanomoles per Liter
Protocol: 25 μL of reaction solution was transferred to a scintillation plate, which was incubated at room temperature for 1 hour (h) and washed with deionized water and 0.1% Tween 20 for three times. A PerkinElmer liquid scintillation/luminescence counter was used to read the value, and GraphPad Prism 5 was used to calculate the median inhibitory concentration (IC50) of the compounds.

[1] = Pharmacokinetic experiment in rats; type: in vivo, SD rats; conditions: for Area Curve (AUC, ng/mL · h) / Half life T1/2, h) / Blood Drug level (Cmax, ng/mL) / Bioavailability (P %) / AUC / Cmax / bioavailability: rats; for Bioavailability (P %) / bioavailability: oral 20 mg/kg vs intravenous 4 mg/kg; for AUC / Cmax / bioavailability: male, SD, rat, plasma; for AUC: read-out: Area Curve (AUC, ng/mL · h); for half-life: male, SD, rat, plasma; rats, Intravenous-Dose 4 mg/kg; read-out: Half life T1/2, h) (converted); for Cmax: read-out: Blood Drug level (Cmax, ng/mL); for bioavailability: read-out: Bioavailability (P %)
Protocol: A certain amount of compound was weighted and dissolved in 0.1% Tween under vortex and ultrasound, and 0.5% carboxymethyl cellulose sodium (CMC-NA) solution was added to form a uniform solution.

[2] = test system: human diffuse large B-cell lymphoma cells (Karpas 422 cell); assay: Karpas 422 cell proliferation, Calcein AM staining; type: cell-based; conditions: data of 14th day, read-out: Karpas422 Proliferation IC50 Nanomoles per Liter
Mutant type EZH2(A677G) = Mutant type EZH2(A677G) (Homo sapiens (Human), UniProt Q15910, A677G); assay: AlphaLISA, mutant type PRC2 complex EZH2(A677G); type: biochemical; conditions: read-out: Mutant type EZH2(A677G) IC59 Nanomoles per Liter
[3] = test system: human diffuse large cell lymphoma B lymphocytes (Pfeiffer cell); assay: Pharmacodynamic experiment, Pfeiffer transplanted tumor model in mice; type: in vivo, mice (beige SCID); conditions: intragastrically, once a day for 21 days; for inhibited tumor growth: 100 mg/kg; for inhibition in vivo at 100 mg/kg: Mus musculus, Pfeiffer, po, 504 h, read-out: inhibited tumor growth
Text: Under sterile conditions, human diffuse large cell lymphoma B lymphocytes (Pfeiffer cell) in logarithmic growth stage were digested and mixed with Matrigel and transplanted subcutaneously on the right back of mice (beige SCID) with severe combined immunodeficiency disease.

Mutant type EZH2(Y641F) = Mutant type EZH2(Y641F) (Homo sapiens (Human), UniProt Q15910, Y641F); assay: AlphaLISA, mutant type PRC2 complex EZH2(Y641F); type: biochemical; conditions: read-out: Mutant type EZH2(Y641F) IC50 Nanomoles per Liter
[4] = test system: human diffuse large cell lymphoma B lymphocytes (Pfeiffer cell); assay: Pfeiffer cell proliferation, Calcein AM staining; type: cell-based; conditions: data of 14th day, read-out: Pfeiffer Proliferation IC50 Nanomoles per Liter
Text: The diffuse large cell lymphoma B lymphocytes (Pfeiffer cells) were collected and counted when growing well.

Mutant type EZH2(Y641N) = Mutant type EZH2(Y641N) (Homo sapiens (Human), UniProt Q15910, Y641N); assay: AlphaLISA, mutant type PRC2 complex EZH2(Y641N); type: biochemical; conditions: read-out: Mutant type EZH2(Y641N) IC50 Nanomoles per Liter
Mutant type EZH2(Y641N), sequence (Q15910 whole entry Y641N): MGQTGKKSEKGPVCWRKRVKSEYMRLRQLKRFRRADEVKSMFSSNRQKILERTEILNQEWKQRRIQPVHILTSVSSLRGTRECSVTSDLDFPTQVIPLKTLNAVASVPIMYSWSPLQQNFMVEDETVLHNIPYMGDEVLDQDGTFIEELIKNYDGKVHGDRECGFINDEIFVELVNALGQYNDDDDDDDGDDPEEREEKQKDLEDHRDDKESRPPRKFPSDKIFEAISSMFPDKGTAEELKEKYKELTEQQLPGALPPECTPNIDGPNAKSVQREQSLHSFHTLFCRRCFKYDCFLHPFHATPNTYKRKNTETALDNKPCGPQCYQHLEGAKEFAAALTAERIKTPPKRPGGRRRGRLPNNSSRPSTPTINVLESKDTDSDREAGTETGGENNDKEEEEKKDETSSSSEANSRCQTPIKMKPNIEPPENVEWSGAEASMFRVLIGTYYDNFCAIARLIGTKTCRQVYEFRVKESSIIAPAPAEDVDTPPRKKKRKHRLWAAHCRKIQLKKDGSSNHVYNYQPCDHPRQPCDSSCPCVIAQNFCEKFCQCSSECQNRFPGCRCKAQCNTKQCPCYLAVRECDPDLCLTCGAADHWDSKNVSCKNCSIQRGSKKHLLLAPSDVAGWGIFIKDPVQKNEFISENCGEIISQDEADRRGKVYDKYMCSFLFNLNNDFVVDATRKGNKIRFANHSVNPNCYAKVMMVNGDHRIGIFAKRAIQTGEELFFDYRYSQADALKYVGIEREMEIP
Mutant type EZH2(Y641N), sequence (O75530 whole entry partner): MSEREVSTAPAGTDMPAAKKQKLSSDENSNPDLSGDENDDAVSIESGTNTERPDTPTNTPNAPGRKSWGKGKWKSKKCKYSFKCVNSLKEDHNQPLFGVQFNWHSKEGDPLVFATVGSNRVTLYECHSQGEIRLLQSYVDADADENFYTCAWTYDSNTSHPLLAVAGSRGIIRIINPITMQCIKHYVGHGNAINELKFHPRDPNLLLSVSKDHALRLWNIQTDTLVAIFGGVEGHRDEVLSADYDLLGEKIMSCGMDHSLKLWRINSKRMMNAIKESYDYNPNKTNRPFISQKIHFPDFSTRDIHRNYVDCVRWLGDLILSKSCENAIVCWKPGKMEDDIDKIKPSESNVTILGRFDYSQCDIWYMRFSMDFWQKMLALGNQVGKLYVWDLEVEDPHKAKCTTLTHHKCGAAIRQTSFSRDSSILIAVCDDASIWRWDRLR
Mutant type EZH2(Y641N), sequence (Q15022 whole entry partner): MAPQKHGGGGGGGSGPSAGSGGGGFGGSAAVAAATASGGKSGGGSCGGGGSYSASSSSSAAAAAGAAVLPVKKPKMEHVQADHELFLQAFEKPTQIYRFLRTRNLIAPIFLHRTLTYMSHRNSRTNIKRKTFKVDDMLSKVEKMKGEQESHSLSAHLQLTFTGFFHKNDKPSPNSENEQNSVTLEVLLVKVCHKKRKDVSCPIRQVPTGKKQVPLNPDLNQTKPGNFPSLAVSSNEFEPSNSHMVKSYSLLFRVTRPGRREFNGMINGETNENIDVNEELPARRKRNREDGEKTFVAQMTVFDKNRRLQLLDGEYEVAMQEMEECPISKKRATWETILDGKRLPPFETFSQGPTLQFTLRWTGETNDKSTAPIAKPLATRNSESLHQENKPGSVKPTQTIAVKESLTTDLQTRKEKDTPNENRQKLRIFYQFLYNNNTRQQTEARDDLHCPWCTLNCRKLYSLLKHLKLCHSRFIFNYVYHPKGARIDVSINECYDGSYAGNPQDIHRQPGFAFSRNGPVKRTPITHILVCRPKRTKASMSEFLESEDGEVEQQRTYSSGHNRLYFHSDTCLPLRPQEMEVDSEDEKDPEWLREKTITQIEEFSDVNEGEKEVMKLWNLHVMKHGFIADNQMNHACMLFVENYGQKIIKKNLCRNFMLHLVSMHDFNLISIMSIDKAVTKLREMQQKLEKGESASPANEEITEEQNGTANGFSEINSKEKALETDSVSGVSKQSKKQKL
Mutant type EZH2(Y641N), sequence (Q09028 whole entry partner): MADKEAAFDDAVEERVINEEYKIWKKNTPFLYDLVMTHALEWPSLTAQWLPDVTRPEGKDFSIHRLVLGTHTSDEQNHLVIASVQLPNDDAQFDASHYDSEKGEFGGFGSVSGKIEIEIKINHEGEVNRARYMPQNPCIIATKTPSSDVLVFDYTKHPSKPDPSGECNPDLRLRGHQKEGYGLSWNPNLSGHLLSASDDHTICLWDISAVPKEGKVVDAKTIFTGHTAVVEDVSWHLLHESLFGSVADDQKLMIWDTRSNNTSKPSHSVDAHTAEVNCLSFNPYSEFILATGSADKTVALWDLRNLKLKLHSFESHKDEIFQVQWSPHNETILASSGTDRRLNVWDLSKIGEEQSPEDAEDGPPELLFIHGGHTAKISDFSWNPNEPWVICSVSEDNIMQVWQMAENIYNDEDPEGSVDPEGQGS
Mutant type EZH2(Y641N), sequence (Q6ZN18 whole entry partner): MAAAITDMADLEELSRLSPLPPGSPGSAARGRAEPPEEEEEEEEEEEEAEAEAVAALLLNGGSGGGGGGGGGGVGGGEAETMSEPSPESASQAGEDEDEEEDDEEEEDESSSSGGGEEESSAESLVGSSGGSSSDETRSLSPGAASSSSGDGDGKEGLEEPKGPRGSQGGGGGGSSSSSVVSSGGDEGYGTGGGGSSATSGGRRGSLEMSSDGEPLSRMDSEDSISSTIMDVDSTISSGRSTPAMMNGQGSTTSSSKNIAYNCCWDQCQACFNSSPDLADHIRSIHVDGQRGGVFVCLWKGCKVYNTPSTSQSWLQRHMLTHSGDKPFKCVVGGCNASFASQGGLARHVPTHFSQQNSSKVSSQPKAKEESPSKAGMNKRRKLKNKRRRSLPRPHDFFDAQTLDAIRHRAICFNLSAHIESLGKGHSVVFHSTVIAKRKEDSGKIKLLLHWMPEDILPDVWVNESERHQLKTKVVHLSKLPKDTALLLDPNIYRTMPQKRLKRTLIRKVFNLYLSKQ

wild-type EZH2, sequence (Q15910 whole entry): as the sequence (Q15910 whole entry Y641N) above, with N641Y counted along it
wild-type EZH2, sequence (O75530 whole entry partner): as the sequence (O75530 whole entry partner) above
wild-type EZH2, sequence (Q15022 whole entry partner): as the sequence (Q15022 whole entry partner) above
Mutant type EZH2(Y641F), sequence (Q15910 whole entry Y641F): as the sequence (Q15910 whole entry Y641N) above, with N641F counted along it
Mutant type EZH2(Y641F), sequence (O75530 whole entry partner): as the sequence (O75530 whole entry partner) above
Mutant type EZH2(Y641F), sequence (Q15022 whole entry partner): as the sequence (Q15022 whole entry partner) above
Mutant type EZH2(Y641F), sequence (Q09028 whole entry partner): as the sequence (Q09028 whole entry partner) above
Mutant type EZH2(Y641F), sequence (Q6ZN18 whole entry partner): as the sequence (Q6ZN18 whole entry partner) above
Mutant type EZH2(A677G), sequence (Q15910 whole entry A677G): as the sequence (Q15910 whole entry Y641N) above, with N641Y, A677G counted along it
Mutant type EZH2(A677G), sequence (O75530 whole entry partner): as the sequence (O75530 whole entry partner) above
Mutant type EZH2(A677G), sequence (Q15022 whole entry partner): as the sequence (Q15022 whole entry partner) above
Mutant type EZH2(A677G), sequence (Q09028 whole entry partner): as the sequence (Q09028 whole entry partner) above
Mutant type EZH2(A677G), sequence (Q6ZN18 whole entry partner): as the sequence (Q6ZN18 whole entry partner) above

| IC50 (wild-type EZH2) | IC50 (Mutant type EZH2(A677G)) | IC50 (Mutant type EZH2(Y641F)) | IC50 (Mutant type EZH2(Y641N)) | IC50 ([2]; Homo sapiens, KARPAS-422) | IC50 ([4]; Homo sapiens, Pfeiffer) | AUC ([1]; Intravenous-Dose 4 mg/kg) | half-life [1] | AUC ([1]; Oral-Dose 20 mg/kg) | Cmax ([1]; Oral-Dose 20 mg/kg) | bioavailability [1] | Compound | Area Curve (AUC, ng/mL · h) ([1]; Intravenous-Dose 4 mg/kg) | Half life T1/2, h) ([1]; Intravenous-Dose 4 mg/kg) | Area Curve (AUC, ng/mL · h) ([1]; Oral-Dose 20 mg/kg) | Blood Drug level (Cmax, ng/mL) ([1]; Oral-Dose 20 mg/kg) | Bioavailability (P %) [1] | IC50 [2] | inhibited tumor growth [3] | IC50 [4] | inhibition in vivo at 100 mg/kg [3] |
| --- | --- | --- | --- | --- | --- | --- | --- | --- | --- | --- | --- | --- | --- | --- | --- | --- | --- | --- | --- | --- |
| 1.12 nM | – | 0.57 nM | 0.4 nM | 2.64 nM | 1.39 nM | – | – | – | – | – | CCN(c1cc(-c2ccc3c(c2)NC(=O)C32CCC(C)(O)CC2)cc(C(=O)NCc2c(C)cc(C)[nH]c2=O)c1C)C1CCOCC1 (stereo not drawn) [Example 93, N-((4,6-dimethyl-2-oxo-1,2-dihydropyridin-3-yl)methyl)-3-(ethyl(tetrahydro-2H-pyran-4-yl)amino)-5-(4-hydroxy-4-methyl-2′-oxospiro[cyclohexane-1,3′-dihydroindole]-6′-yl)-2-methylbenzamide] | – | – | – | – | – | – | – | – | 94% |
| – | – | – | – | 0.96 nM | 0.19 nM | 896 ng·h/mL | 1.37 h | 1510 ng·h/mL | 412 ng/mL | 33.7% | CCN(c1cc(-c2cc3c(cc2F)C2(CCOCC2)C(=O)N3C)cc(C(=O)NCc2c(C)cc(C)[nH]c2=O)c1C)C1CCOCC1 [Example 12, N-((4,6-dimethyl-2-carbonyl-1,2-dihydropyridin-3-yl)methyl)-3-(ethyl(tetrahydro-2H-pyran-4-yl)amino)-5-(5-fluoro-1-methyl-2-carbonyl-2′,3′,5′,6′-tetrahydrospiro[dihydroindole-3,4′-pyran]-6-yl)-2-methylbenzamide] | – | – | – | – | – | – | – | – | 99% |
| 0.81 nM | 0.63 nM | 0.72 nM | – | 2.15 nM | 1.34 nM | 966 ng·h/mL | 1.12 h | 1610 ng·h/mL | 456 ng/mL | 53.3% | CCN(c1cc(-c2ccc3c(c2)C2(CCOCC2)C(=O)N3C)cc(C(=O)NCc2c(OC)cc(C)[nH]c2=O)c1C)C1CCN(CC(F)(F)F)CC1 [Example 109, 3-(Ethyl(1-(2,2,2-trifluoroethyl)piperidin-4-yl)amino)-N-((4-methoxy-6-methyl-2-oxo-1,2-dihydropyridin-3-yl)methyl)-2-methyl-5-(1-methyl-2-oxo-2′,3′,5′,6′-tetrahydrospiro[dihydroindole-3,4′-pyran]-5-yl)benzamide] | – | – | – | – | – | – | – | – | 101% |
| – | – | – | – | – | – | – | – | – | – | – | CCN(c1cc(-c2ccc3c(c2)NCC32CCN(C)CC2)cc(C(=O)NCc2c(C)cc(C)[nH]c2=O)c1C)C1CCOCC1 [Example 7, N-((4,6-dimethyl-2-oxo-1,2-dihydropyridin-3-yl)methyl)-3-(ethyl(tetrahydro-2H-pyran-4-yl)amino)-2-methyl-5-(1′-methylspiro[dihydroindole-3,4′-piperidine]-6-yl)benzamide] | 937.25 ng·h/mL | 1.64 h | 1435.87 ng·h/mL | 405.10 ng/mL | 30.64% | – | 95% | – | – |
| 1.83 nM | 0.91 nM | 1.48 nM | 0.38 nM | 4.76 nM | 4.24 nM | – | – | – | – | – | CCN(c1cc(-c2ccc3c(c2)C2(CCOCC2)C(=O)N3C)cc(C(=O)NCc2c(C)cc(C)[nH]c2=O)c1C)C1CCOCC1 [Example 83, N-((4,6-dimethyl-2-oxo-1,2-dihydropyridin-3-yl)methyl)-3-(ethyl(tetrahydro-2H-pyran-4-yl)amino)-2-methyl-5-(1-methyl-2-oxo-2′,3′,5′,6′-tetrahydrospiro[dihydroindole-3,4′-pyran]-5-yl)benzamide] | – | – | – | – | – | – | – | – | 98% |
| 0.91 nM | 0.67 nM | – | – | 8.15 nM | 7.16 nM | – | – | – | – | – | CCN(c1cc(-c2ccc3c(c2)C2(CCOCC2)C(=O)N3)cc(C(=O)NCc2c(C)cc(C)[nH]c2=O)c1C)C1CCOCC1 [Example 77, N-((4,6-dimethyl-2-oxo-1,2-dihydropyridin-3-yl)methyl)-3-(ethyl(tetrahydro-2H-pyran-4-yl)amino)-2-methyl-5-(2-oxo-2′,3′,5′,6′-tetrahydrospiro[dihydroindole-3,4′-pyran]-5-yl)benzamide] | – | – | – | – | – | – | – | – | 100% |

| Compound | IC50 (wild-type EZH2) | IC50 (Mutant type EZH2(A677G)) | IC50 (Mutant type EZH2(Y641F)) | IC50 (Mutant type EZH2(Y641N)) | IC50 ([2]; Homo sapiens, KARPAS-422) | IC50 ([4]; Homo sapiens, Pfeiffer) | AUC ([1]; Intravenous-Dose 4 mg/kg) | half-life [1] | AUC ([1]; Oral-Dose 20 mg/kg) | Cmax ([1]; Oral-Dose 20 mg/kg) | bioavailability [1] | Area Curve (AUC, ng/mL · h) ([1]; Intravenous-Dose 4 mg/kg) | Half life T1/2, h) ([1]; Intravenous-Dose 4 mg/kg) | Area Curve (AUC, ng/mL · h) ([1]; Oral-Dose 20 mg/kg) | Blood Drug level (Cmax, ng/mL) ([1]; Oral-Dose 20 mg/kg) | Bioavailability (P %) [1] | IC50 [2] | inhibited tumor growth [3] | IC50 [4] | inhibition in vivo at 100 mg/kg [3] |
| --- | --- | --- | --- | --- | --- | --- | --- | --- | --- | --- | --- | --- | --- | --- | --- | --- | --- | --- | --- | --- |
| 3-(ethyl(tetrahydro-2H-pyran-4-yl)amino)-5-(6-fluoro-2,2′,3,3′,5′,6′-hexahydrospiro[indene-1,4′-pyran]-5-yl)-N-((4-methoxy-6-methyl-2-oxo-1,2-dihydropyridin-3-yl)methyl)-2-methylbenzamide 9-1 and 3-(ethyl(tetrahydro-2H-pyran-4-yl)amino)-5-(5-fluoro-2,2′,3,3′,5′,6′-hexahydrospiro[indene-1,4′-pyran]-6-yl)-N-((4-methoxy-6-methyl-2-oxo-1,2-dihydropyridin-3-yl)methyl)-2-methylbenzamide 9-2 [Example 9] | 0.7 nM | 0.37 nM | 0.52 nM | – | – | – | – | – | – | – | – | 926.01 ng·h/mL | 1.54 h | 1522.36 ng·h/mL | 437.25 ng/mL | 32.88% | 1.8 nM | 97% | 0.42 nM | – |
